Measured values published in US9187496B2 (priority 2009, dated 2015).
Where two headings read alike, the source gives them in different places.

Assays:
[1] = tested on: HCV genotype 1b Conl strain subgenomic luciferase replicon (Zluc); experiment: Luciferase replicon assay, genotype 1b; type: cell-based; conditions: read-out: EC50 1b
Experimental: (§1) The HCV luciferase replicon assay measures the ability of a test compound to inhibit HCV replication in cell culture after 3 days of treatment in a human hepatoma cell line (Huh-7) bearing a HCV replicon containing a luciferase-neomycin phosphotransferase fusion gene. The inhibition of HCV replication was measured by quantification of luciferase protein expression. Briefly, Huh-7 cells containing either the HCV genotype 1a H77 strain or genotype 1b Conl strain subgenomic luciferase replicon (H1a-luc or Zluc, respectively) were grown in DMEM containing glucose, L-glutamine and sodium pyruvate, 10% fetal bovine serum (FBS), 100 IU/mL penicillin, 100 μg/mL streptomycin, 2 mM GlutaMAX, non-essential amino acids and 0.25 (H1a-luc) or 0.5 (Zluc) mg/mL G418. GlutaMAX was obtained from Invitrogen, Corp.; all other media reagents were obtained from Mediatech, Inc. For dose-response testing, the cells were seeded in 96-well plates at 1×10^4 (H1a-luc) or 7.5×10^3 (Zluc) cells/well in a volume of 50 μL, and incubated at 37° C./5% CO2. Three hours after plating, 50 μL of ten 5-fold serial dilutions of compound were added, and cell cultures were incubated at 37° C./5% CO2 for 72 hours. In all cases, Huh-7 cells lacking the HCV replicon served as negative control. To assess luciferase expression, the media/compound was removed from the plates and ONE-glo Luciferase assay reagent (Promega) was added to each well. The assay plates were shaken for 3 minutes at room temperature and luciferase activity for each well was measured with a 1 sec read time on the Victor^3V multilabel counter using a 700 nm cut-off filter (Perkin Elmer). EC50 values were calculated from dose response curves from the resulting best-fit equations determined by Microsoft Excel and XLfit 4.1 software.

[2] = tested on: HCV genotype 2a-specific NS5A gene within the 1b-replicon; experiment: Luciferase replicon assay, NS5A-intergenotypic stable cell line genotype 2a; type: cell-based; conditions: read-out: EC50 2a
Excerpt: (§2) The nucleotide sequences of the NS5A region of genotype 2a (GenBank Accession #AB047639), genotype 3a (GenBank Accession #D17763), and genotype 4a (GenBank Accession#DQ418788) were synthesized by an outside vendor. The NS5A region of each of these genotypes included the first 11 amino acids of the protease recognition sequence of genotype 1b, as well as the last 10 amino acids of genotype 1b. The NS5A gene cassettes were excised with site specific restriction endonucleases and ligated into a ZS11-luciferase genotype 1b backbone (backbone contains the genotype 1b NS3 protease, NS4a, NS4b, and NS5b coding regions) with similarly cut restriction enzyme sites. Thus, the newly constructed plasmid contains a genotype 2a-, 3a- or 4a-specific NS5A gene within the 1b-replicon.
(§3) These new intergenotypic plasmids were used to establish stable cell lines. RNA was generated from the NS5A intergenotypic plasmids and used in conjunction with a lipofectin reagent to transfect a cured Huh7 cell line. Transfected cells were selected for with G418. After selection has occurred the stable cell lines were propagated, tested for luciferase activity, and RT-PCR with genotype specific primers (either 1a, 2a, 3a, or 4a). Stable cell lines containing the intergenotypic replicon were then fully sequenced and analysed for proper expression of NS3, NS5A and NS5B proteins.
(§4) Drug titration analysis was performed using the luciferase replicon assay described herein.
as §1

[3] = tested on: HCV genotype 3a-specific NS5A gene within the 1b-replicon; experiment: Luciferase replicon assay, NS5A-intergenotypic stable cell line genotype 3a; type: cell-based; conditions: read-out: EC50 3a
Excerpt: as §2, §3, §4, §1

[4] = tested on: HCV genotype 4a-specific NS5A gene within the 1b-replicon; experiment: Luciferase replicon assay, NS5A-intergenotypic stable cell line genotype 4a; type: cell-based; conditions: read-out: EC50 4a
Excerpt: as §2, §3, §4, §1

[5] = tested on: HCV genotype 1a H77 strain (H1a-luc replicon / 1a-H77NS5a intergenotypic replicon); experiment: Luciferase replicon assay, genotype 1a; type: cell-based
Excerpt: To generate the 1a-H77NS5a intergenotypic plasmid, dual cut sites were inserted into the ZS11-luciferase genotype 1b backbone that would bracket the NS5a region almost in its entirety. Using PCR and 1a-H77 specific primers also containing the corresponding restriction enzyme sites, the NS5a gene was amplified from the 1a-H77 replicon. The ZS11-luciferase genotype 1b backbone and the genotype 1a NS5a PCR products were restriction enzyme digested and then ligated using standard molecular cloning techniques. The newly constructed plasmid contains the genotype 1a-specific NS5a gene where as the backbone remains 1b as described herein.
as §3, §4, §1

[6] = Cytotoxicity evaluation in luciferase replicon cells (Cell Titer 96 AQueous One); type: cell-based, human; conditions: human; Table 1B, cellular viability
Experimental: (§5) For cytotoxicity evaluation, H1a-luc or Zluc cells were treated with compounds as described above and cellular viability was monitored using the Cell Titer 96 AQueous One Solution Cell Proliferation Assay (Promega). Plates were then read at 490 nm in a Victor^3V 1420 multilabel counter (Perkin Elmer) and CC50 concentrations were determined using Microsoft Excel and XLfit 4.1 software.

[7] = tested on: Huh-7 cells containing HCV Con1 subgenomic replicon (GS4.1 cells); experiment: HCV replicon assay (NS5A ELISA); type: cell-based; conditions: Hepatitis C virus, Huh-7; GS4.1 cells, 72 hrs, NS5A ELISA; read-out: EC50
Outline: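 GS4.1 cells dosed 3 h after seeding with ten 2-fold dilutions from 75 μM, or single 15 μM, in 0.5% DMSO for 72 h at 37° C; NS5A measured by ELISA (A-236 antibody, OPD, A492). EC50 from four-parameter sigmoidal fit of % inhibition.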

[8] = Cytotoxicity evaluation in GS4.1 cells (Cell Titer 96 AQueous One); type: cell-based, human; conditions: human, cellular viability
Experimental: For cytotoxicity evaluation, GS4.1 cells were treated with compounds as described above and cellular viability was monitored using the Cell Titer 96 AQueous One Solution Cell Proliferation Assay (Promega). CC50 values were determined from the % cytotoxicity versus concentration data with Tecan Magellan software as described above.

[9] = tested on: H1a-luc or Zluc cells; experiment: Cytotoxicity evaluation in luciferase replicon cells (Cell Titer 96 AQueous One); type: cell-based, human; conditions: Table 1B, cellular viability
Experimental: as §5

[10] = Hepatitis C virus, read-out: EC50 1a, genotype 1a

SMILES | EC50 ([1]; Hepatitis C virus, 72 h) [nM] | EC50 ([2]; Hepatitis C virus) [nM] | EC50 ([3]; Hepatitis C virus) [nM] | EC50 ([4]; Hepatitis C virus) [nM] | EC50 [5, 10] [nM] | CC50 at 72 h [6] [nM] | EC50 [7] [nM] | CC50 [8] [nM] | EC50 ([5]; read-out: EC50 1a, genotype 1a) [nM] | EC50 ([1]; genotype 1b, luciferase replicon, 72 hours) [nM] | EC50 ([2]; genotype 2a) [nM] | EC50 ([3]; genotype 3a) [nM] | EC50 ([4]; genotype 4a) [nM] | CC50 [9] [nM]
COC(=O)NC(C(=O)N1CCCC1c1ncc(-c2cc3sc(-c4ccc5[nH]c(C6CCCN6C(=O)C(NC(=O)OC)C(C)C)nc5c4)cc3s2)[nH]1)C(C)C (stereo in doubt) [Compound A176, ((S)-1-{(S)-2-[5-(5-{(S)-2-[1-((S)-2-methoxycarbonylamino-3-methyl-butyryl)-pyrrolidin-2-yl]-3H-benzoimidazol-5-yl}-thieno[3,2-b]thiophen-2-yl)-1H-imidazol-2-yl]-pyrrolidine-1-carbonyl}-2-methyl-propyl)-carbamic acid methyl ester] | < 0.1 | 0.1 to 1 | 0.1 to 1 | 0.1 to 1 | 0.1 to 1 | 10000 to 75000 | – | – | – | – | – | – | – | –
COC(=O)N[C@@H](C(=O)N1CCCC1c1ncc(-c2cn3cc(-c4ccc(-c5cnc([C@@H]6CCCN6C(=O)[C@H](NC(=O)OC)c6ccccc6)[nH]5)cc4)nc3s2)[nH]1)c1ccccc1 (stereo partly shown) [A60] | – | – | – | – | – | – | < 1 | > 75000 | – | – | – | – | – | –
COC(=O)N[C@H](C(=O)N1CCC[C@H]1c1ncc(-c2ccc(-c3csc4c(-c5cnc([C@@H]6CCCN6C(=O)[C@@H](NC(=O)OC)C(C)C)[nH]5)csc34)cc2)[nH]1)C(C)C [Compound A15, [(S)-1-((S)-2-{4-[4-(6-{2-[(S)-1-((S)-2-methoxycarbonylamino-3-methyl-butyryl)-pyrrolidin-2-yl]-3H-imidazol-4-yl}-thieno[3,2-b]thiophen-3-yl)-phenyl]-1H-imidazol-2-yl}-pyrrolidine-1-carbonyl)-2-methyl-propyl]-carbamic acid methyl ester] | < 0.1 | < 0.1 | 0.1 to 1 | < 0.1 | < 0.1 | 10000 to 75000 | < 1 | 10000 to 75000 | – | – | – | – | – | –
COC(=O)N[C@H](C(=O)N1CCC[C@H]1c1ncc(-c2ccc(-c3csc4c(-c5ccc(-c6cnc([C@@H]7CCCN7C(=O)[C@@H](NC(=O)OC)C(C)C)[nH]6)cc5)csc34)cc2)[nH]1)C(C)C [Compound A86, ((S)-1-((S)-2-(5-{4-[6-{4-{2-[(S)-1-((S)-2-methoxycarbonylamino-3-methyl-butyryl)-pyrrolidin-2-yl]-3H-imidazol-4-yl}-phenyl)-thieno[3,2-b]thiophen-3-yl]-phenyl}-1H-imidazol-2-yl)-pyrrolidine-1-carbonyl]-2-methyl-propyl}-carbamic acid methyl ester] | < 0.1 | 1 to 10 | 1 to 10 | < 0.1 | 0.1 to 1 | 10000 to 75000 | < 1 | 10000 to 75000 | – | – | – | – | – | –
COC(=O)N[C@H](C(=O)N1CCCC1c1ncc(-c2csc3c(-c4ccc(-c5cnc(C6CCCN6C(=O)[C@H](NC(=O)OC)c6ccccc6)[nH]5)cc4)csc23)[nH]1)C(C)C (stereo partly shown) [Compound A114] | < 0.1 | < 0.1 | < 0.1 | < 0.1 | 0.1 to 1 | – | – | – | < 0.1 | – | – | – | – | –
COC(=O)N[C@H](C(=O)N1CCC[C@H]1c1nc(-c2ccc(-c3csc4c(Br)csc34)cc2)c[nH]1)C(C)C [Compound A155, [(S)-1-((S)-2-{4-[4-(6-bromo-thieno[3,2-b]thiophen-3-yl)-phenyl]-1H-imidazol-2-yl}-pyrrolidine-1-carbonyl)-2-methyl-propyl]-carbamic acid methyl ester] | – | – | – | – | – | – | 10 to 100 | 10000 to 75000 | – | – | – | – | – | –
COC(=O)N[C@H](C(=O)N1CCC[C@H]1c1ncc(-c2ccc(-c3cc4sc(-c5ccc6[nH]c([C@@H]7CCCN7C(=O)[C@H](NC(=O)OC)c7ccccc7)nc6c5)cc4s3)cc2)[nH]1)C(C)C [Compound A194, [(S)-1-((S)-2-{4-[4-(5-{(S)-2-[1-((R)-2-methoxycarbonylamino-2-phenyl-acetyl)-pyrrolidin-2-yl]-3H-benzoimidazol-5-yl}-thieno[3,2-b]thiophen-2-yl)-phenyl]-1H-imidazol-2-yl}-pyrrolidine-1-carbonyl)-2-methyl-propyl]-carbamic acid methyl ester] | < 0.1 | 1 to 10 | 0.1 to 1 | < 0.1 | 0.1 to 1 | > 75000 | – | – | – | – | – | – | – | –
COC(=O)N[C@H](C(=O)N1CCC[C@H]1c1nc2ccc(-c3csc4c(C#Cc5cnc([C@@H]6CCCN6C(=O)[C@H](NC(=O)OC)c6ccccc6)[nH]5)csc34)cc2[nH]1)C(C)C [Compound A206] | – | – | – | – | – | – | – | – | – | < 0.1 | < 0.1 | < 0.1 | < 0.1 | > 75000
COC(=O)N[C@H](C(=O)N1CCC[C@H]1c1nc2ccc(-c3csc4c(-c5ccc6nc([C@@H]7CCCN7C(=O)[C@H](NC(=O)OC)c7ccccc7)[nH]c6c5)csc34)cc2[nH]1)C(C)C [Compound A208] | < 0.1 | < 0.1 | < 0.1 | < 0.1 | < 0.1 | > 75000 | – | – | – | – | – | – | – | –
